Earlier results in patent US20020034548A1, “STABILIZED ASCORBIC COMPOSITION” (priority 1998, published 2002).

Legend:
[1] = pH 5.0
[2] = 5% ascorbic acid solution

Structure (SMILES): O=C1O[C@H]([C@@H](O)CO)C(O)=C1O [L-ascorbic acid]
- ascorbic acid deprotonated (2% aqueous solution at 25° C.): About 2.4%
- pK1 (aqueous solution, room temperature): 4.17
- redox potential [1]: +0.127 V
- time to completely decay into oxidized form [2]: a few days
